Data published in ChEMBL document CHEMBL2417420, “Autotaxin inhibition: development and application of computational tools to identify site-selective lead compounds” (Bioorg Med Chem, 2013).
Peptide text beside a SMILES is read from it. * marks the point of attachment. Cbz = O=C(OCc1ccccc1)*

Target: Autotaxin (Homo sapiens, UniProt Q13822)
Assay: Inhibition of C-terminal FLAG-tagged human recombinant autotaxin using synthetic substrate FS-3 at 10 uM measured every 2 mins by FRET assay relative to control

| Structure (SMILES) | inhibition |
| --- | --- |
| CCOc1cc(CC2SC(N3CCN(C4=NC(=O)C(Cc5ccc(O)c(OCC)c5)S4)CC3)=NC2=O)ccc1O (stereo not given) | 30% |
| CC(=O)N1c2ccc(NC(=O)c3ccc(Cl)cc3Cl)cc2C2(c3ccccc3)N(C(C)=O)c3ccc(NC(=O)c4ccc(Cl)cc4Cl)cc3C12c1ccccc1 (stereo not given) | 10% |
| C=CCOC(=O)C1=C(C)NC(SCC(=O)Nc2cccc(Cl)c2)=C(C#N)C1c1ccc(O)c(OC)c1 (stereo not given) | 30% |
| CCCCOc1ccc(-c2nc3cc(C(=O)NCc4ccc(C(F)(F)F)cc4)ccc3n2CCc2ccc(OC)c(OC)c2)cc1 | 30% |
| COc1ccccc1C1CC(=O)NC(SCC(=O)Nc2ccc(Br)cc2)=C1C#N (stereo not given) | 30% |
| O=C(N/N=C/c1cc(Br)c(O)c(O)c1Br)/C(=C\c1ccc([N+](=O)[O-])cc1)NC(=O)c1ccccc1 | 20% |
| CCCCCCOc1ccc(/C=N/c2ccc(C)cc2)cc1 | 0% |
| CC(C)c1ccc(S(=O)(=O)N2CCn3nc(C4CCC(CNC(=O)c5ccco5)CC4)cc32)cc1 (stereo not given) | 20% |
| COc1cc(C2CC(=O)NC(SCc3ccccc3)=C2C#N)ccc1O (stereo not given) | 30% |
| COc1cc(C2CC(=O)NC(SCC(=O)Nc3c(C)cc(C)cc3C)=C2C#N)ccc1OCc1ccccc1 (stereo not given) | 30% |
| N#CC1=C(SCC(=O)Nc2ccc(Br)cc2)NC(=O)CC1c1ccc(O)cc1 (stereo not given) | 10% |
| CCCCS(=O)(=O)N1CCn2nc(C3CCC(CNS(=O)(=O)c4ccccc4C)CC3)cc21 (stereo not given) | 30% |
| N#CC1=C(SCC(=O)N(c2ccccc2)c2ccccc2)NC(=O)CC1c1cc(Br)c(O)c(Br)c1 (stereo not given) | 10% |
| COc1cc(CCNC(=O)c2ccc3c(c2)nc(-c2cccc(C)c2)n3CCc2ccc(OC)c(OC)c2)cc(OC)c1 | 30% |
| Cc1ccc(-c2ccc(-c3nnc(CCCC(=O)NC(CO)CO)o3)cc2)cc1 | 10% |
| CCCCOc1ccc(-c2nc3cc(C(=O)NCCOCCO)ccc3n2Cc2ccco2)cc1 | 10% |
| Nc1c(/N=N/c2ccc(-c3ccc(/N=N/c4ccc(O)cc4)cc3)cc2)c(S(=O)(=O)O)cc2cc(S(=O)(=O)O)c(/N=N/c3ccccc3)c(O)c12 | 0% |
| COc1cc(CCNC(=O)c2ccc3c(c2)nc(-c2cc(OC)cc(OC)c2)n3CCc2ccc(OC)c(OC)c2)cc(OC)c1 | 30% |
| CCc1ccc2c(c1)c1nnc(SCC(=O)NCc3ccc4c(c3)OCO4)nc1n2C | 10% |
| CCCCCCOc1ccc(/C=N/c2ccc(-c3ccc(/N=C/c4ccc(OCCCCCC)c(OC)c4)cc3)cc2)cc1CC | 79.1% |
| COc1cc(C2CC(=O)NC(SCC(=O)Nc3ccccc3C)=C2C#N)cc(Br)c1O (stereo not given) | 30% |
| N#CC1=C(SCC(=O)Nc2ccc(Br)cc2)NC(=O)CC1c1cccc(O)c1 (stereo not given) | 30% |

| Structure (SMILES) | inhibition |
| --- | --- |
| CCCCCCOc1ccc(C(=O)COC(=O)c2ccccc2-c2ccccc2C(=O)COC(=O)c2ccc(OCCCCCC)cc2)cc1 | 0% |
| COc1cc(/C=N/NC(=O)c2cc(-c3ccc4ccccc4c3)n[nH]2)ccc1O | 10% |
| COc1ccc(-c2nc3cc(C(=O)NCCOCCO)ccc3n2CCc2ccc(OC)c(OC)c2)c(OC)c1 | 10% |
| CCCCCOc1ccc(/C=N/c2ccc(/N=C/c3ccc(OCCCCC)cc3)c(Cl)c2)cc1 | 0% |
| CC[C@@H]1CN2CCc3cc(OC)c(OC)cc3[C@@H]2C[C@@H]1C[C@@H]1c2cc(OC)c(OC)cc2CCN1C(=O)COCC(=O)N1CCc2cc(OC)c(OC)cc2[C@@H]1C[C@H]1C[C@H]2c3cc(OC)c(OC)cc3CCN2C[C@@H]1CC | 0% |
| COc1cccc(CC(=O)NCCNc2nc3cc4c(cc3cc2C#N)OCO4)c1 | 20% |
| CCCCCOc1ccc(/N=C2\C=C(O)C(=O)c3ccccc32)cc1 | 20% |
| COc1cc(/C=N/NC(=O)c2ccc(NC(=O)c3ccc(F)cc3)cc2)cc(Cl)c1O | 10% |
| CC(CNC(=O)CCCn1ncn2c(cc3occc32)c1=O)c1ccccc1 (stereo not given) | 10% |
| COc1ccc(CCNC(=O)c2ccc3c(c2)nc(-c2cc(OC)c(OC)c(OC)c2)n3CCc2ccc(OC)c(OC)c2)cc1OC | 30% |
| COc1cc(/C=N/NC(=O)c2cc(-c3ccc(OC)c(OC)c3)n[nH]2)ccc1O | 10% |
| CCCCOc1ccc(-c2nc3cc(C(=O)NCc4cc(F)ccc4F)ccc3n2CCc2ccc(OC)c(OC)c2)cc1 | 30% |
| O=C(COc1cc(Cl)c(Cl)cc1Cl)Nc1ccc(CNC(=O)c2cnc3cc(C(F)(F)F)ccc3c2O)cc1 | 10% |
| O=[N+]([O-])c1cc(/C=N/c2ccc3nc(SCc4ccc(Br)cc4)sc3c2)ccc1O | 0% |
| CCOc1cc(/C=C2/NC(=O)N(Cc3ccccc3F)C2=O)cc(Br)c1OCc1ccc2ccccc2c1 | 10% |
| COc1ccc(/C=N/NC(=O)c2cc(O)c(O)c(O)c2)cc1Cn1nc(C)c(Br)c1C | 10% |
| COc1cccc(C2CC(=O)NC(SCC(=O)Nc3ccccc3C)=C2C#N)c1OC (stereo not given) | 30% |
| COc1ccc(CCn2c(-c3cc(OC)c(OC)c(OC)c3)nc3cc(C(=O)NCCOCCO)ccc32)cc1OC | 20% |
| COc1ccc(-c2cc(C(=O)NC(C)(C)C(=O)NCCCOC(C)C)c3ccccc3n2)cc1C | 20% |
| CCCCCC(C)(C)c1ccc(Oc2ccc(NC(=O)c3cc(/N=N/c4cccc(OC)c4)c4ccccc4c3O)cc2)cc1 | 10% |
| COCCNS(=O)(=O)c1ccc2c(c1)NC(=O)C(CO)N2C(=O)CN1CCC(N2CCCCC2)CC1 (stereo not given) | 20% |
| COc1cc(CCNC(=O)c2ccc3c(c2)nc(-c2cc(OC)c(OC)c(OC)c2)n3CCc2ccc(OC)c(OC)c2)cc(OC)c1 | 30% |

Continued, values first:

| inhibition | Structure (SMILES) |
| --- | --- |
| 30% | COc1ccc(CCn2c(-c3cc(OC)c(OC)c(OC)c3)nc3cc(C(=O)NCCc4ccccc4)ccc32)cc1OC |
| 30% | CC(C)Cc1ccc(C(C)C(=O)N2CCN(c3ncccc3C(=O)NC(C(N)=O)C(C)O)CC2C)cc1 (stereo not given) |
| 20% | COCCOCC(=O)N1CCN(c2ccc(C(=O)NC(C(N)=O)C(C)O)cn2)CC1C (stereo not given) |
| 30% | O=C(O)[C@@H](Cc1ccc(O)cc1)/N=C1\S/C(=C\c2ccc(-c3cccc(Cl)c3)o2)C(=O)N1c1ccccc1 |
| 20% | COc1ccccc1C(COc1ccccc1C)NCCC(=O)N(CC(N)=O)Cc1ccc(C)cc1 (stereo not given) |
| 20% | COC(=O)c1ccc(/C=C2/Sc3ccccc3N(Cc3ccccc3F)C2=O)cc1 |
| 10% | NC(=O)C(Cc1ccc(O)cc1)NC(=O)c1ccc(N2CCN(C(=O)C(N)Cc3ccccc3)CC2)nc1 (stereo not given) |
| 0% | CCc1nc2ccc(C(=O)N3CCN(C(C)=O)CC3)cn2c1N(C)C(=O)COc1ccccc1 |
| 30% | Cn1cc(S(=O)(=O)N2CCc3ccccc32)cc1C(=O)N1CCC(Cc2ccccc2)CC1 |
| 0% | Cc1ccc(C(=O)Nc2ccccc2C(=O)O)cc1S(=O)(=O)Nc1ccc(Br)cc1 |
| 10% | O=C(NCC(O)CO)c1ccc2c(c1)nc(CN1CCC(CCO)CC1)n2CCc1ccccc1 (stereo not given) |
| 10% | COc1cccc(Cc2nc3cc(C(=O)NCC(O)CO)ccc3n2CCc2ccccc2F)c1 (stereo not given) |
| 0% | O=C(O)c1cccc(/N=C2\S/C(=C\c3ccc(-c4cccc(Cl)c4)o3)C(=O)N2Cc2ccccc2)c1 |
| 30% | O=C(O)CN1C(=O)/C(=C\c2ccc(OCc3cccc4ccccc34)cc2)SC1=S |
| 10% | CCC(COc1ccc2oc3ccccc3c2c1)NCCC(=O)N(CC(N)=O)Cc1ccc(C)cc1 (stereo not given) |
| 20% | COc1cc([C@@H]2C(C(=O)c3cccs3)=C(O)C(=O)N2CCc2ccccc2)cc(Br)c1O |
| 10% | CC(O)C(NC(=O)c1cccnc1N1CCN(C(=O)CCC(=O)c2ccccc2)CC1)C(N)=O (stereo not given) |
| 10% | COc1ccc(-c2cc(C(=O)NC(C)(C)C(=O)NCCC3CCCN3C)c3ccccc3n2)cc1 (stereo not given) |
| 0% | COc1cccc(/C=C2/S/C(=N/c3ccccc3)N(Cc3ccccc3)C2=O)c1O |
| 20% | CCN(C(=O)c1ccc(/C=C2\S/C(=N\c3ccccc3)N([C@H](C)C(=O)O)C2=O)cc1)c1ccccc1 |
| 10% | CCOc1cc(/C=C2/S/C(=N/c3ccccc3)N(c3ccccc3)C2=O)ccc1OCc1ccccc1 |

| inhibition | Structure (SMILES) |
| --- | --- |
| 30% | COCCNS(=O)(=O)c1ccc2c(c1)NC(=O)C(Cc1ccccc1)N2C(=O)CNCc1ccc(OC)cc1 (stereo not given) |
| 20% | CC(O)C(NC(=O)c1cccnc1N1CCN(C(=O)Cc2ccc(-c3ccccc3)cc2)CC1)C(N)=O (stereo not given) |
| 10% | COc1ccc(CNC(=O)C(C)(C)NC(=O)c2cc(-c3ccoc3)nc3ccccc23)c(OC)c1 |
| 20% | CC(CC(=O)NCCc1ccncc1)NC(=O)c1cc(-c2ccccc2)nc2ccccc12 (stereo not given) |
| 20% | COc1cc(CCNC(=O)c2ccc3c(c2)nc(-c2ccccc2)n3CCc2ccc(OC)c(OC)c2)cc(OC)c1 |
| 0% | COc1cc(/C=C2/SC(=S)N(Cc3ccccc3)C2=O)ccc1OC(=O)c1cccs1 |
| 30% | CC(O)C(NC(=O)c1cccnc1N1CCC(CCCC2CCN(C(=O)CCC(=O)c3ccccc3)CC2)CC1)C(N)=O (stereo not given) |
| 30% | CC(C)c1ccc(OCC(=O)N2CCN(c3ncccc3C(=O)N3CCCC3C(N)=O)CC2C)cc1 (stereo not given) |
| 10% | Cc1ccc(C)c(N2CCN(C3CN(C(=O)NCCc4ccccc4)CC3O)CC2)c1 (stereo not given) |
| 20% | CC(c1cc2ccccc2o1)N1CCN(C(=O)CCSc2ccc3ccccc3c2)CC1 (stereo not given) |
| 20% | CCn1c(CN2CCc3ccccc3C2)nc2cc(C(=O)NCC(O)CO)ccc21 (stereo not given) |
| 10% | COc1cccc(CNS(=O)(=O)c2ccc3c(c2)NC(=O)C(C)N3C(=O)CN2CCN(c3ccccn3)CC2)c1OC (stereo not given) |
| 10% | COc1ccc(-c2cc(C(=O)NCC(C)C(=O)NCCNc3ccccc3)c3ccccc3n2)cc1 (stereo not given) |
| 10% | CC1CN(c2ccc(C(=O)NC(Cc3ccc(O)cc3)C(N)=O)cn2)CCN1C(=O)C(N)Cc1ccccc1 (stereo not given) |
| 10% | CC(=O)CCC(=O)N1CCN(c2ccc(C(=O)NC(C(N)=O)C(C)O)cn2)CC1C (stereo not given) |
| 10% | COCCCn1c(CN2CCN(c3ccccc3F)CC2)nc2cc(C(=O)NCC(O)CO)ccc21 (stereo not given) |
| 0% | CC(=O)N1CCN(C(=O)c2ccc3nc(C)c(N(C)C(=O)CCc4ccccc4)n3c2)CC1 |
| 0% | O=C(Cn1c(=O)sc2ccccc21)OCc1cccc(Oc2ccccc2)c1 |
| 0% | CCC(C)C(NC(=O)OCc1ccccc1)C(=O)NC(Cc1ccc(O)cc1)C(N)=O (stereo not drawn) (Cbz-Ile-Tyr-NH2; configuration not given here) |
| 20% | Cc1cc(C)cc(CC(=O)N2CCN(c3ccc(C(=O)NC(C(N)=O)C(C)O)cn3)CC2)c1 (stereo not given) |
